The target in one assay is T1, NOX4 (Homo sapiens, UniProt Q9NPH5).
T1 construct: membranes prepared from cells specifically overexpressing the human NOX isoform
T1 sequence (Q9NPH5 1-578): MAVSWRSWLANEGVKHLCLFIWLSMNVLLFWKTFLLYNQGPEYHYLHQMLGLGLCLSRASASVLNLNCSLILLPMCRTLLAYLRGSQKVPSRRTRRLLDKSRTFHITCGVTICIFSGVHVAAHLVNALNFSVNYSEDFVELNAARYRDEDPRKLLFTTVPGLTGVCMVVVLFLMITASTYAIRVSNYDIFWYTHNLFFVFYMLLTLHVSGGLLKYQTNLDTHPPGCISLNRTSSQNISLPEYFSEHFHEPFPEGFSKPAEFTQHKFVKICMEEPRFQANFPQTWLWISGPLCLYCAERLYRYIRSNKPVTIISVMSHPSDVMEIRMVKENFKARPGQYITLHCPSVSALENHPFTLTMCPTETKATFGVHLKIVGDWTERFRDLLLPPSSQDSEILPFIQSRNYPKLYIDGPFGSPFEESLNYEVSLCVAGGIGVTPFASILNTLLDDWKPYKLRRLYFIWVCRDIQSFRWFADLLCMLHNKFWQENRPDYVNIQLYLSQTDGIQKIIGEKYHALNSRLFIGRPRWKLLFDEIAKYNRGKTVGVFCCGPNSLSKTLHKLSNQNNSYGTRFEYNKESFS
Nature of the assay: Amplex Red/HRP ROS production assay on membranes of NOX4-overexpressing cells, concentration-response. It is filed as biochemical.

The target of another assay is T2, NOX1 (Homo sapiens, UniProt Q9Y5S8).
T2 construct: membranes prepared from cells specifically overexpressing the human NOX isoform
T2 sequence (Q9Y5S8 1-564): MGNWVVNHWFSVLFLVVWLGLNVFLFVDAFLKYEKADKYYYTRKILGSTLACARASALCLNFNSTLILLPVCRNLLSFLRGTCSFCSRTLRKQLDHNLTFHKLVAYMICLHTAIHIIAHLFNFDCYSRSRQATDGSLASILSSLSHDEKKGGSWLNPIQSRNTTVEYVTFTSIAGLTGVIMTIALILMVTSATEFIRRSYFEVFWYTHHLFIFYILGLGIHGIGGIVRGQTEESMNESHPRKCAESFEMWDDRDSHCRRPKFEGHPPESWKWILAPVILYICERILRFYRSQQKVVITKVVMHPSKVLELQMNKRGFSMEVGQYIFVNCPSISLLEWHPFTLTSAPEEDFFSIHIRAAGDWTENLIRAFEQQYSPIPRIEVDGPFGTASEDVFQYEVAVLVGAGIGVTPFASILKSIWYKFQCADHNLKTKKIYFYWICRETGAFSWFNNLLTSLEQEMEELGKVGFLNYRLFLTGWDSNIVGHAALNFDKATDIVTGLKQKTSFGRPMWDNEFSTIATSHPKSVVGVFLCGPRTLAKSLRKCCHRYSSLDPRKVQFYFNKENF
Description: Amplex Red/HRP ROS production assay on membranes of NOX1-overexpressing cells, concentration-response. The format is biochemical.

Take GKT771: the Ki on NOX4 was 4 µM; on NOX1, 0.06 ± 0.006 µM.
